One experiment concerns EL4 GD2^positive cells. Kind of experiment: Intracellular calcium by flow cytometry (Rhod-2 AM). The settings on record: PP1 10 μM, EL4 GD2positive cells. The format is cell-based, mouse. The procedure:
(c) Effect of GD2 ligands on intracellular calcium concentrations. Resting EL4 GD2positive cells were treated with mAb 3F8 (13 nM), control mouse IgG (mIg) or the calcium ionophore A23187. Intracellular calcium concentration was evaluated over time by flow cytometry using the calcium-sensitive fluorophore Rhod-2 AM. mAb 3F8 can induce strong, sustainable calcium changes withing 5 minutes, while control mouse IgG has no effect. […] Shown are averages of 4 independent assays ± SEM.
Intracellular calcium studies: cells (1×10^6 per sample) were washed with Ringer's solution (155 mM NaCl, 4.5 mM KCl, 2 mM CaCl2, 1 mM MgCl2, 10 mM D-glucose, 5 mM HEPES) and resuspended in 1 ml Ringer's containing 10 μM p56^Lck inhibitor PP1 (BioMol) or vehicle for 15 minutes at 37° C. Then 5 μM Rhod-2AM (Molecular Probes) was then added to the cells and incubated for 30 minutes at room temprature with mild agitation. Cells were washed once in Ringer's, resuspended in 1 ml Ringer's and incubated for 30 minutes, after which cells were stimulated with the indicated ganglioside ligands (or calcium ionophore A23187 as control) and analyzed over a 30 minute period for intracellular Ca^2+ using a flow cytometer (Becton-Dickinson).

In a further experiment the test system is mAb 3F8-GD2 interactions. Kind of experiment: Competitive ELISA: inhibition of mAb 3F8 binding to immobilized GD2 by peptides. To be noted: for % Inhibition of mAb 3F8-GD2 interactions: peptides 50 μg/well, 1 hour before mAb 3F8, immobilized GD2, no peptide = 0%, no mAb 3F8 = 100%, mean ± SEM of 5 experiments; for Activity in SAR and deletion analysis (inactive mark): Table 1 domains/peptides. On the set-up: key to Activity in SAR and deletion analysis (inactive mark): peptides marked by * are inactive. The method, then:
Detection of GD2 or GM1 by ELISA: 12.5 ng/well of ganglioside (GD2, Advanced Immunochemicals or GM1) were immobilized by drying onto PVC 96-well plates (Falcon), followed by blocking with PBS-0.5% BSA for one hour. Then, anti-GD2 mAb 3F8 or biotin-CTB were added for 10 minutes. The plate was washed three times with PBS-0.5% BSA and incubated 60 minutes with horseradish peroxidase (HRP)-conjugated anti-mouse antibody or HRP-conjugated-avidin. After three washes with PBS-0.5% BSA and two with PBS, the colorimetric substrate ABTS was added and the plate read at 414 nm on a Biorad 550 plate reader. Assessment of peptide-GD2 interaction by competitive ELISA: ELISAs were as described above, except that peptides (50 μg/well, in PBS) were added to the wells for 1 hour before anti-GD2 mAb 3F8 or anti-GM1 cholera toxin-B. Selectivity of inhibition is controlled by lack of effect upon GM1-CTB interactions. […] No competitor peptide added or control irrelevant peptide added were standardized as 100% binding. […] Inhibition of mAb 3F8 bindng to immobilized GD2 by peptides, measured by competitive ELISA. No peptide or control peptide treatments are standardized as 0% inhibition. No mAb 3F8 treatment is standardized as 100% inhibition. Average of 5 […] experiments, n=4 in each experiment. Mean±SEM.

The target in the next experiment is T1, human recombinant CD45 (Homo sapiens, UniProt P08575).
T1 construct: purchased BioMol
T1 sequence (P08575 26-1306): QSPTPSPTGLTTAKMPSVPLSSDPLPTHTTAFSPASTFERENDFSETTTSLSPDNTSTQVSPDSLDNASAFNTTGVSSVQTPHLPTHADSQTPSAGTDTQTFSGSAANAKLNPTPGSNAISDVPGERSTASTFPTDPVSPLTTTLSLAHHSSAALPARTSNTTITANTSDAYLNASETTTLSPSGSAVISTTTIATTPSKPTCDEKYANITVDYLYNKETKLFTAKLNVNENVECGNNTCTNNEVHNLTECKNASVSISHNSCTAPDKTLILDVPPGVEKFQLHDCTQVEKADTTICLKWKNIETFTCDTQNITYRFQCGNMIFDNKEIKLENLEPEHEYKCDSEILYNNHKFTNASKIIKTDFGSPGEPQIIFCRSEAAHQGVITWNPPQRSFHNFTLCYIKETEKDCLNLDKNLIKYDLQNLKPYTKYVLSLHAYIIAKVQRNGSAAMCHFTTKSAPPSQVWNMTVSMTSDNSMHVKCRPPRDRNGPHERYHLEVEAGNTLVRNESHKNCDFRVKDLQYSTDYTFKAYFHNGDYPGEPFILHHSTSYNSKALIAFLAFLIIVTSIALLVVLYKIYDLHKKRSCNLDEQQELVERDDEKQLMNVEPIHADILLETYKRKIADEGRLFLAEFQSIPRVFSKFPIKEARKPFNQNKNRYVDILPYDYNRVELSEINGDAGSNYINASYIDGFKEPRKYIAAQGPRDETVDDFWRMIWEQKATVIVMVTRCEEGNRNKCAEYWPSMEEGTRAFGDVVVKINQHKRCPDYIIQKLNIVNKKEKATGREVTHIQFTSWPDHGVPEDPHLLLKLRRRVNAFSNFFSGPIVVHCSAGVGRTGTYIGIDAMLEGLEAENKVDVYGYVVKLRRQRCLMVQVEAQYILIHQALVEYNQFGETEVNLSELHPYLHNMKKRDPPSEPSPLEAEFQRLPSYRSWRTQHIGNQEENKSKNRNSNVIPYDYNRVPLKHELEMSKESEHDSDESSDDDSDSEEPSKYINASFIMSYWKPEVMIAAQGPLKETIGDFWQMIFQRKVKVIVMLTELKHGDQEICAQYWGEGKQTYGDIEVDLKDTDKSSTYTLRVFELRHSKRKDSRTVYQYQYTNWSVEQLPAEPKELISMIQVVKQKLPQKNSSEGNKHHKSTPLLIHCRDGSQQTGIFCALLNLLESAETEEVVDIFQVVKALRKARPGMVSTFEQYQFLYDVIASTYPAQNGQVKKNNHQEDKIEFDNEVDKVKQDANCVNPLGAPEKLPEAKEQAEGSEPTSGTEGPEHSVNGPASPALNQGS
Nature of the experiment: In vitro CD45 phosphatase assay. The format is biochemical. To be noted: gangliosides 16.7 μM, pp60Src phosphoregulatory peptide substrate. The procedure: In vitro CD45 phosphatase assay: human recombinant CD45 enzyme (BioMol, 75 units/well) was preincubated in the absence (negative control) or presence of sodium orthovanadate (positive control) or various gangliosides (16.7 μM) for 20 minutes at room temperature in half-volume 96-well microtiter plates. A CD45-specific substrate (pp60^Src C-terminal phosphoregulatory peptide, 200 μM) was then added for 20 minutes at 30° C., afterwhich the reaction was stopped and quantified with BioMol Green reagent. Plates were read at 620 nm with a Biorad 550 platew reader.

For experiment [1], the target named is T2, purified p56^Lck tyrosine kinase (Homo sapiens, UniProt P06239).
T2 construct: purchased Upstate Biotechnology
Nature of the experiment: Effect of exogenous gangliosides on in vitro kinase activity of purified p56Lck. The format is biochemical. The settings on record: control assays. The method, then: The kinase activity of p56^Lck was evaluated by measuring the incorporation of ^32PO4 in a peptidic p56^Lck substrate over time, with or without GD2 or GM1. Presence of GD2, but not GM1, can positively alter the kinetics of p56^Lck kinase activity. Activity standardized to untreated p56^Lck at the 20 minute time point. Shown are averages of 3 to 5 assays±SEM.
Effect of exogenous GD2 on p56^Lck in vitro kinase assay: chromatographically purified p56^Lck tyrosine kinase (Upstate Biotechnology) was incubated on ice for 10 minutes in kinase buffer (100 mM Tris-HCl, pH 7.2, 125 mM MgCl2, 25 mM MnCl2, 2 mM EGTA, 150 μM ATP, 0.25 mM sodium orthovanadate, 2 mM DTT) with or without ˜20 fold molar excess of ganglioside and 10 μCi [γ-^32P]ATP. Then 10 μg of the Src kinase substrate peptide p34^cdc2(6-20) (Upstate Biothechnology) was added to the mix and incubated at room temperature for the times indicated, after which the reaction was stopped by addition of 100 μM iodoacetamide and by precipitation of proteins with final 10% TCA. The supematant (containing the phosphorylated peptide substrate, not precipitated by TCA) was spotted on a P81 paper (Whatman) and washed three times with 0.75% phosphoric acid and once with acetone. The [^32P]-peptide content was quantified using a Storm 840 phosphorimager with ImageQuant software.

The text below walks through data of US7423114B2, “GD2 ligands” (McGill University, priority 2002, dated 2008).

“Also recorded” adds a separate entry of the source.

T2 sequence (P06239 whole entry): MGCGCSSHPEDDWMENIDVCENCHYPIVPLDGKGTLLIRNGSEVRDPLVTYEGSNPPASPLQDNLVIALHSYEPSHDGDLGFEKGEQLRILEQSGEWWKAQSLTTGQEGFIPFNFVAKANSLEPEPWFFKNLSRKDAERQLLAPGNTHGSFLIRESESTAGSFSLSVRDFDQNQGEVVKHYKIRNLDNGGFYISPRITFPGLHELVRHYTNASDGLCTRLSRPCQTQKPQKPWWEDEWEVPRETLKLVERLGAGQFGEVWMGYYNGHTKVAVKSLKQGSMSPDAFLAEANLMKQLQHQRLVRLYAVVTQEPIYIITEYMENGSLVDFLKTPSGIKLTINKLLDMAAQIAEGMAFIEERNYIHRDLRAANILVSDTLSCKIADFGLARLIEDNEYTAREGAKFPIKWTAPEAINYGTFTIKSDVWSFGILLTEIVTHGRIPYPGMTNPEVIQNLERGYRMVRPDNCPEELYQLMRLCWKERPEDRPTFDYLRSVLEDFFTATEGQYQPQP

As for `Cc1ccc(-c2nn(C(C)(C)C)c3ncnc(N)c23)cc1` [PP1], in the experiment with EL4 GD2^positive cells, the “Effect of p56Lck inhibitor on mAb 3F8-induction of Ca++ fluxes” value was “markedly decreased; also recorded: partially abolished”. Regarding C G G I T N Y N C (CGGITNYNC) [Pep 54], in the experiment on mAb 3F8-GD2 interactions, the “% Inhibition of mAb 3F8-GD2 interactions” value came to 40.34 ± 3.17%. Consider “C G G I T N Y N S A C (CGGITNYNSAC) [Pep 52]”, for which the “% Inhibition of mAb 3F8-GD2 interactions” value in the experiment on mAb 3F8-GD2 interactions is 30.17 ± 2.69%.

Regarding C G GI A N Y N C [Pep 58], the “% Inhibition of mAb 3F8-GD2 interactions” value with mAb 3F8-GD2 interactions was 47.60 ± 4.26%. The same measure, in the same setting: to C G GI A N Y N T S C [Pep 59] belongs 48.83 ± 5.01%; to C I A N Y N T C (CIANYNTC) [Pep 60], 30.94 ± 3.53%; to C I T N Y N S C (CITNYNSC) [Pep 53], 24.74 ± 3.29%. The same measure, in the same setting: to C T N Y G V C (CTNYGVC) [Pep 56] belongs 14.13 ± 5.43%; to C T N Y G V H C (CTNYGVHC) [Pep 55], 12.23 ± 4.41%. Take G G I A N Y N T S (GGIANYNTS) [Pep 57]: in the experiment with mAb 3F8-GD2 interactions, the “Activity in SAR and deletion analysis (inactive mark)” value is listed as “*”; the “% Inhibition of mAb 3F8-GD2 interactions” value is reported as 4.33 ± 5.23%. For “G G I T N Y N S A L M (GGITNYNSALM) [Pep 51]”, in the experiment on mAb 3F8-GD2 interactions, the “Inhibition of GD2-mAb 3F8 interactions in ELISA, in words” value is recorded as “can also act as a competitive inhibitor” and the “% Inhibition of mAb 3F8-GD2 interactions” value is 44.96 ± 1.57%. Take GD1a: on human recombinant CD45, the “Inhibition of CD45 phosphatase activity” value is on record as 50%.

Turning to “YCTNYGVCY [core matches Pep 56 with added terminal Y residues]”, the “Activity in SAR and deletion analysis (inactive mark)” value in the experiment with mAb 3F8-GD2 interactions was “*”. On the same count and under the same terms, to “YCTNYGVHCY [core matches Pep 55 with added terminal Y residues]” belongs “*”. As for phosphatidylcholine, the “p56Lck kinase activity upon addition of exogenous lipid, in words” value in experiment [1] is listed as “not altered”.
